Source: patent publication US12128047B2, “TLR7 agonist and pharmaceutical combination thereof for treating lung cancer” (CHIA TAI TIANQING PHARMACEUTICAL GROUP CO., LTD., priority 2018, dated 2024)

Test system: LLC (Lewis Lung Cancer) tumor
Assay: Antitumor experiment in LLC mouse model (subcutaneous xenograft LLC tumor)
Assay type: in vivo, C57BL/6 mice
Settings: i.g.; for TV (mm^3) on day 0 Mean ± SD: day 0 (grouping, before dosing from day 1); for TGI (%): from tumor weight on day 15 vs control group
Method: In Example 1, the TLR7 agonist was
[drawing 58] and anlotinib was anlotinib dihydrochloride.
LLC (Lewis Lung Cancer) Mice: subcutaneously grafted tumor cells of lung cancer (concentration: 2×10^6/mL×0.2 mL/mouse) were inoculated into C57BL/6 mice at the right side armpit (the site to be inoculated was shaved before inoculating) in a sterile environment, and passaged using a block insertion method. The C57BL/6 mice were female and 16-18 g in weight, and the breeding environment was SPF level. The diameter of the C57BL/6 xenograft tumor was measured using a vernier caliper, and the animals were randomly divided into five groups when the tumors grew to 100-300 mm^3: • i. Control group (blank control); • ii. Monotherapy group: anlotinib 5 mg/kg/d (positive control), with normal saline as a vehicle; • iii. Monotherapy group: TLR7 agonist 20 mg/kg, t.i.w., with ethanol/Tween 80 (v:v=1:1) as a vehicle; • iv. Monotherapy group: anlotinib 1 mg/kg/d, with normal saline as a vehicle; and • v. Combination therapy group: TLR7 agonist 20 mg/kg, t.i.w., and anlotinib 1 mg/kg/d.
The mice in the control group and monotherapy groups were administered in a volume of 10 mL/kg, and the mice in the combination therapy group were administered with two drugs simultaneously, each in a volume of 10 mL/kg. Weights and diameter of the tumor were measured every three days, and the behavior of mice was observed daily.
Mice were divided into groups on day 0, with 12 in the control group and 6 in each of the remaining groups. The drugs were administered intragastrically (i.g.) from day 1. The treatment was discontinued on day 12. During the experiment, the tumor volume was measured on days 0, 3, 6, 9, 12 and 15, and the tumors were removed and weighed on day 15, i.e., at the end of experiment.
The tumor volume and the tumor growth inhibition were calculated using the following formulae: Tumor volume (TV)=(L×W^2)/2. Tumor growth inhibition (TGI)=(1−tumor weight in the treatment group/tumor weight in the control group)×100%.

SMILES | TV (mm^3) on day 0 Mean ± SD (anlotinib 1 mg/kg/d × 11 d) [mm^3] | TV (mm^3) on day 12 Mean ± SD (anlotinib 1 mg/kg/d × 11 d) [mm^3] | TV (mm^3) on day 15 Mean ± SD (anlotinib 1 mg/kg/d × 11 d) [mm^3] | TGI (%) (anlotinib 1 mg/kg/d × 11 d) | TV (mm^3) on day 0 Mean ± SD (anlotinib 5 mg/kg/d × 11 d, female C57BL/6 mice with LLC tumor) [mm^3] | TV (mm^3) on day 12 Mean ± SD (anlotinib 5 mg/kg/d × 11 d) [mm^3] | TV (mm^3) on day 15 Mean ± SD (anlotinib 5 mg/kg/d × 11 d) [mm^3] | TGI (%) (anlotinib 5 mg/kg/d × 11 d) | TV (mm^3) on day 0 Mean ± SD (TLR7 agonist 20 mg/kg, t.i.w.) [mm^3] | TV (mm^3) on day 12 Mean ± SD (TLR7 agonist 20 mg/kg, t.i.w.) [mm^3] | TV (mm^3) on day 15 Mean ± SD (TLR7 agonist 20 mg/kg, t.i.w.) [mm^3] | TGI (%) (TLR7 agonist 20 mg/kg, t.i.w.) | growth of LLC tumor (result in words) (TLR7 agonist alone, 20 mg/kg, t.i.w., summary of Table 1)
COc1cc2c(Oc3ccc4[nH]c(C)cc4c3F)ccnc2cc1OCC1(N)CC1 [Anlotinib, 1-[[[4-(4-fluoro-2-methyl-1H-indol-5-yl)oxy-6-methoxyquinolin-7-yl]oxy]methyl]cyclopropylamine] | 213.25 ± 39.34 | 2697.21 ± 747.99 | 4114.08 ± 1213.40 | 13.5 | 213.47 ± 38.16 | 1393.38 ± 532.59 | 1811.75 ± 736.45 | 63.4 |  |  |  |  | 
CCCCOc1nc(N)c2[nH]cc(Cc3ccc(CN4CCCC4)cc3)c2n1 [TLR7 agonist] |  |  |  |  |  |  |  |  | 212.98 ± 47.17 | 2353.68 ± 663.83 | 3257.62 ± 577.45 | 30.1 | can inhibit the growth of LLC tumor
